Measurements published in ChEMBL document CHEMBL1201862, “PubChem BioAssay data set” (2004).
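48-hour exposure; five concentrations; linearly interpolated endpoints. GI50 is the concentration that inhibits growth by half.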 Active and inactive are the calls of the source. Cut-off read from the data, not from the text of the source: active = GI50 up to about 1.1 µM and inactive = higher. Where a SMILES comes first, the peptide text is derived from it. The star is where a group is joined. Cbz = O=C(OCc1ccccc1)*

Tests used:
Assay in all cases: NCI-60 cell line screen, 48 h
[1] = test system: CCRF-CEM
[2] = test system: T47D
[3] = test system: HCT-15
[4] = test system: HCT-116
[5] = test system: SF-539
[6] = test system: UO-31
[7] = test system: SK-MEL-2
[8] = test system: OVCAR-5
[9] = test system: LOX IMVI
[10] = test system: UACC-62
[11] = test system: MDA-N
[12] = test system: NCI/ADR-RES
[13] = test system: OVCAR-4
[14] = test system: HOP-62
[15] = test system: SK-MEL-28
[16] = test system: M14
[17] = test system: TK-10
[18] = test system: Malme-3M
[19] = test system: A498
[20] = test system: K562

Structure (SMILES) | GI50 [1] | GI50 [2] | GI50 [3] [µM] | GI50 [4] | GI50 [5] | GI50 [6] | GI50 [7] | GI50 [8] | GI50 [9] | GI50 [10] | GI50 [11] | GI50 [12] | GI50 [13] | GI50 [14] | GI50 [15] | GI50 [16] | GI50 [17] | GI50 [18] | GI50 [19] | GI50 [20]
O=C1c2cc([N+](=O)[O-])cnc2S(=O)(=O)N1c1ccc(Br)cc1 | > 100 µM (inactive) | > 100 µM (inactive) | > 100 | > 100 µM (inactive) | > 100 µM (inactive) | > 100 µM (inactive) | > 100 µM (inactive) | > 100 µM (inactive) | > 100 µM (inactive) | > 100 µM (inactive) | > 100 µM (inactive) | > 100 µM (inactive) | > 100 µM (inactive) | > 100 µM (inactive) | > 100 µM (inactive) | > 100 µM (inactive) | > 100 µM (inactive) | > 100 µM (inactive) | – | –
COC(=O)C(Cc1ccccc1)NC(=O)CNC(=O)CSc1nnc(COc2ccc(Cl)cc2)n1-c1ccccc1 (configuration not stated) | 2.86 µM (inactive) | 12.5 µM (inactive) | 18.1 | 17.8 µM (inactive) | 17.6 µM (inactive) | 1.69 µM (inactive) | 17 µM (inactive) | 18.7 µM (inactive) | 3.69 µM (inactive) | 14.5 µM (inactive) | – | 20 µM (inactive) | 6.73 µM (inactive) | 17.7 µM (inactive) | 18 µM (inactive) | 17.7 µM (inactive) | 14.5 µM (inactive) | 18.7 µM (inactive) | 15.5 µM (inactive) | 25.3 µM (inactive)
CCN(CC)CCC(=O)N1C/C(=C/c2ccccc2)C(=O)/C(=C\c2ccccc2)C1 | 0.219 µM (active) | 1.19 µM (inactive) | 1.24 | 0.321 µM (active) | 3.83 µM (inactive) | 1.71 µM (inactive) | 2.19 µM (inactive) | 3.45 µM (inactive) | 0.415 µM (active) | 2.03 µM (inactive) | 0.865 µM (active) | – | 2.17 µM (inactive) | 13.2 µM (inactive) | 1.82 µM (inactive) | 1.52 µM (inactive) | 6.58 µM (inactive) | 2.58 µM (inactive) | 3.96 µM (inactive) | 0.141 µM (active)
CCOC(=O)CNC(=O)C(C)NC(=O)C(NC(=O)OCc1ccccc1)C(C)C (stereo not drawn) (Cbz-Val-Ala-Gly-OEt; configuration not given here) | – | – | > 100 | > 100 µM (inactive) | > 100 µM (inactive) | 98.9 µM (inactive) | 77.8 µM (inactive) | > 100 µM (inactive) | – | > 100 µM (inactive) | > 100 µM (inactive) | > 100 µM (inactive) | – | > 100 µM (inactive) | > 100 µM (inactive) | > 100 µM (inactive) | > 100 µM (inactive) | > 100 µM (inactive) | – | 48.1 µM (inactive)
Cc1cccc2c1Oc1cc(Cl)ccc1C2NC(=O)CCN1CCCCC1 (configuration not stated) | 16 µM (inactive) | 13.1 µM (inactive) | 17.7 | 15.9 µM (inactive) | 16.7 µM (inactive) | 15.4 µM (inactive) | – | 17.8 µM (inactive) | 15.6 µM (inactive) | 14.7 µM (inactive) | 16.3 µM (inactive) | 15.5 µM (inactive) | 15.3 µM (inactive) | 14.3 µM (inactive) | 15.6 µM (inactive) | 17.7 µM (inactive) | 15.8 µM (inactive) | – | – | 15.1 µM (inactive)
NC(=O)C(N)CC12CC3CC(CC(C3)C1)C2 (configuration not stated) | 26.7 µM (inactive) | – | 31.6 | 17 µM (inactive) | – | 21.7 µM (inactive) | 24.6 µM (inactive) | 22.8 µM (inactive) | 16 µM (inactive) | 14.5 µM (inactive) | 13.6 µM (inactive) | 25.2 µM (inactive) | 17.5 µM (inactive) | – | 20.1 µM (inactive) | 19.3 µM (inactive) | 29.6 µM (inactive) | – | – | 28.9 µM (inactive)
N#CC(C(=O)c1cccnc1Cl)c1nc2cc(C(F)(F)F)ccc2s1 (configuration not stated) | – | > 100 µM (inactive) | 35.3 | 26.1 µM (inactive) | 99.3 µM (inactive) | 39.8 µM (inactive) | – | 33.9 µM (inactive) | 37.3 µM (inactive) | – | – | 65.5 µM (inactive) | 67 µM (inactive) | 34.8 µM (inactive) | 56.8 µM (inactive) | 50.8 µM (inactive) | 55.5 µM (inactive) | 37.1 µM (inactive) | 26.7 µM (inactive) | 60.5 µM (inactive)
CC(=O)OC1CC2C(C)(C)C(=O)C=CC2(C)C2CCC3(C)C(c4ccoc4)OC(=O)C4OC43C12C (configuration not stated) | – | 12.5 µM (inactive) | 5.07 | 2.4 µM (inactive) | 6.55 µM (inactive) | 4.23 µM (inactive) | 13 µM (inactive) | 19.7 µM (inactive) | – | 5.37 µM (inactive) | – | 5.32 µM (inactive) | 32.4 µM (inactive) | 26 µM (inactive) | 20.4 µM (inactive) | 10.5 µM (inactive) | 95.1 µM (inactive) | – | 24.9 µM (inactive) | 3.54 µM (inactive)
Nc1nc2ccc(OCC(O)CN3CCCCC3)cc2[n+]([O-])n1 (configuration not stated) | > 100 µM (inactive) | – | > 100 | > 100 µM (inactive) | > 100 µM (inactive) | > 100 µM (inactive) | > 100 µM (inactive) | > 100 µM (inactive) | – | – | > 100 µM (inactive) | > 100 µM (inactive) | > 100 µM (inactive) | – | > 100 µM (inactive) | > 100 µM (inactive) | > 100 µM (inactive) | > 100 µM (inactive) | > 100 µM (inactive) | > 100 µM (inactive)
COc1ccc2c(N=[N+]=[N-])c(-c3ccccc3)c(=O)oc2c1 | 36.1 µM (inactive) | 22.8 µM (inactive) | 56.6 | 44.3 µM (inactive) | > 100 µM (inactive) | – | – | – | 82.8 µM (inactive) | 58.6 µM (inactive) | 48.8 µM (inactive) | – | – | > 100 µM (inactive) | > 100 µM (inactive) | 57 µM (inactive) | 87.5 µM (inactive) | 33.3 µM (inactive) | 45.9 µM (inactive) | 40 µM (inactive)
CSc1nncc(-c2cc3c(c(SC)n2)CCC3)n1 | > 100 µM (inactive) | – | > 100 | 96.2 µM (inactive) | – | > 100 µM (inactive) | > 100 µM (inactive) | > 100 µM (inactive) | – | > 100 µM (inactive) | – | 69.5 µM (inactive) | 48.1 µM (inactive) | > 100 µM (inactive) | > 100 µM (inactive) | > 100 µM (inactive) | > 100 µM (inactive) | – | – | –
CC(C)(C)OC(=O)N1C[C@H](CC(=O)OCc2ccccc2)C[C@H]1C(=O)OCC(Cl)(Cl)Cl | 1.35 µM (inactive) | 1.64 µM (inactive) | 3.27 | 3.88 µM (inactive) | 14.5 µM (inactive) | 3.94 µM (inactive) | 6.7 µM (inactive) | 20.2 µM (inactive) | 4.97 µM (inactive) | 5.6 µM (inactive) | – | 2.64 µM (inactive) | 3.95 µM (inactive) | 22.8 µM (inactive) | 13.6 µM (inactive) | 6.46 µM (inactive) | 15.9 µM (inactive) | 6.28 µM (inactive) | 3.44 µM (inactive) | 2 µM (inactive)
CCOC(=O)N/N=C(\CC)OCC | > 100 µM (inactive) | > 100 µM (inactive) | > 100 | > 100 µM (inactive) | > 100 µM (inactive) | > 100 µM (inactive) | > 100 µM (inactive) | > 100 µM (inactive) | > 100 µM (inactive) | > 100 µM (inactive) | > 100 µM (inactive) | > 100 µM (inactive) | – | > 100 µM (inactive) | – | > 100 µM (inactive) | > 100 µM (inactive) | > 100 µM (inactive) | – | > 100 µM (inactive)
O=C(O)Cc1ccc(Oc2nc3ccccc3nc2-c2ccccc2)cc1 | 61.4 µM (inactive) | > 100 µM (inactive) | 65.3 | 85.7 µM (inactive) | 60.5 µM (inactive) | 36.6 µM (inactive) | 70 µM (inactive) | > 100 µM (inactive) | 60.3 µM (inactive) | 24.9 µM (inactive) | – | 99.5 µM (inactive) | > 100 µM (inactive) | > 100 µM (inactive) | 90.6 µM (inactive) | 36.2 µM (inactive) | 97.9 µM (inactive) | 65.8 µM (inactive) | > 100 µM (inactive) | 97.9 µM (inactive)
NC(=O)c1c2c(n3ccccc13)C(=O)c1ccccc1C2=O | > 100 µM (inactive) | > 100 µM (inactive) | > 100 | > 100 µM (inactive) | 39.6 µM (inactive) | > 100 µM (inactive) | 32.3 µM (inactive) | – | > 100 µM (inactive) | 68.2 µM (inactive) | – | > 100 µM (inactive) | > 100 µM (inactive) | 30.2 µM (inactive) | > 100 µM (inactive) | 18.1 µM (inactive) | > 100 µM (inactive) | – | > 100 µM (inactive) | > 100 µM (inactive)
Nc1ccc(S(=O)(=O)Nc2nnc(S(N)(=O)=O)s2)cc1 | – | > 100 µM (inactive) | > 100 | > 100 µM (inactive) | > 100 µM (inactive) | > 100 µM (inactive) | – | > 100 µM (inactive) | > 100 µM (inactive) | > 100 µM (inactive) | – | > 100 µM (inactive) | > 100 µM (inactive) | – | – | > 100 µM (inactive) | > 100 µM (inactive) | > 100 µM (inactive) | > 100 µM (inactive) | –
COc1ccc(CN(O)C2C(CO)OC(n3cc(I)c(=O)[nH]c3=O)C2O)cc1 (configuration not stated) | > 100 µM (inactive) | – | > 100 | > 100 µM (inactive) | > 100 µM (inactive) | > 100 µM (inactive) | > 100 µM (inactive) | > 100 µM (inactive) | > 100 µM (inactive) | > 100 µM (inactive) | – | – | > 100 µM (inactive) | > 100 µM (inactive) | > 100 µM (inactive) | > 100 µM (inactive) | > 100 µM (inactive) | > 100 µM (inactive) | > 100 µM (inactive) | > 100 µM (inactive)
